Measurements taken from PubChem BioAssay AID248 (DTP/NCI, 2004).
Several values for one entry are separate records, joined by “and”; a condition that tells them apart may be missing. Identical values can stand only once. Inconclusive results and toxic doses are left out. Rule as the data show it: active = T/C of 150% or more; inactive = T/C below 125%.

Test system: L1210 leukemia ip in BDF1 mice, survival T/C
Test: NCI In Vivo Anticancer Drug Screen. Data for tumor model L1210 Leukemia (intraperitoneal) in B6D2F1 (BDF1) mice
Conditions: endpoint: mean survival time, higher = longer survival
Outline: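 Ratio derived from survival: compound-dosed mice over vehicle-dosed mice, all bearing a transplantable tumor.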

[1] = dose: 50.0 mg/kg/injection, schedule: Q01DX009 (ip), vehicle: Klucel (hydroxypropylcellulose) (HPC)
[2] = dose: 100.0 mg/kg/injection, schedule: Q01DX009 (ip), vehicle: Klucel (hydroxypropylcellulose) (HPC)
[3] = dose: 50.0 mg/kg/injection, schedule: Q04DX003 (ip), vehicle: Klucel (hydroxypropylcellulose) (HPC)
[4] = dose: 100.0 mg/kg/injection, schedule: Q01DX001 (ip), vehicle: carboxymethylcellulose (CMC)
[5] = dose: 100.0 mg/kg/injection, schedule: Q04DX003 (ip), vehicle: Klucel (hydroxypropylcellulose) (HPC)
[6] = dose: 200.0 mg/kg/injection, schedule: Q04DX003 (ip), vehicle: Klucel (hydroxypropylcellulose) (HPC)
[7] = dose: 400.0 mg/kg/injection, schedule: Q01DX001 (ip), vehicle: carboxymethylcellulose (CMC)

Measured: T/C

CC1SCC(NC(=O)NCCCl)CS1 (centres undefined)
inactive: dose: 100.0 mg/kg/injection, schedule: Q04DX002 (ip), vehicle: gum acacia 103 % of control | dose: 200.0 mg/kg/injection, schedule: Q04DX002 (ip), vehicle: gum acacia 100 % of control | dose: 400.0 mg/kg/injection, schedule: Q04DX002 (ip), vehicle: gum acacia 100 % of control

NC(=S)NCC12CC3CC(CC(C3)C1)C2
inactive: dose: 3.0 mg/kg/injection, schedule: Q04DX002 (ip), vehicle: Klucel (hydroxypropylcellulose) (HPC) 101 % of control and 114 % of control | dose: 6.0 mg/kg/injection, schedule: Q04DX002 (ip), vehicle: Klucel (hydroxypropylcellulose) (HPC) 106 % of control and 120 % of control | dose: 12.0 mg/kg/injection, schedule: Q04DX002 (ip), vehicle: Klucel (hydroxypropylcellulose) (HPC) 112 % of control | dose: 12.5 mg/kg/injection, schedule: Q04DX002 (ip), vehicle: Klucel (hydroxypropylcellulose) (HPC) 105 % of control | dose: 25.0 mg/kg/injection, schedule: Q04DX002 (ip), vehicle: Klucel (hydroxypropylcellulose) (HPC) 101 % of control

O=C1C2CC=C(c3ccccc3)C1CCC2 (centres undefined)
inactive: dose: 75.0 mg/kg/injection, schedule: Q01DX001 (ip), vehicle: other 103 % of control | dose: 150.0 mg/kg/injection, schedule: Q01DX001 (ip), vehicle: other 97 % of control | dose: 300.0 mg/kg/injection, schedule: Q01DX001 (ip), vehicle: other 102 % of control

CC1(C)N=C(N)N=C(N)N1c1cccc(/C=C/c2cccc([N+](=O)[O-])c2)c1
inactive: [1] 102 % of control | [2] 90 % of control | dose: 200.0 mg/kg/injection, schedule: Q01DX009 (ip), vehicle: Klucel (hydroxypropylcellulose) (HPC) 106 % of control

O=c1cc(C23CC4CC(CC(C4)C2)C3)[nH]c(=S)[nH]1
inactive: dose: 100.0 mg/kg/injection, schedule: Q01DX001 (ip), vehicle: saline with Tween-80 92 % of control | dose: 200.0 mg/kg/injection, schedule: Q01DX001 (ip), vehicle: saline with Tween-80 108 % of control | dose: 400.0 mg/kg/injection, schedule: Q01DX001 (ip), vehicle: saline with Tween-80 94 % of control

Cc1ccc(C(=O)C(C)CN2CCCCC2)cc1 (centres undefined)
inactive: dose: 100.0 mg/kg/injection, schedule: Q01DX001 (ip), vehicle: saline 97 % of control | dose: 200.0 mg/kg/injection, schedule: Q01DX001 (ip), vehicle: saline 94 % of control

C#CC(C)OCC(C)OC (centres undefined)
inactive: dose: 25.0 mg/kg/injection, schedule: Q01DX009 (ip), vehicle: acetone 97 % of control | dose: 50.0 mg/kg/injection, schedule: Q01DX009 (ip), vehicle: acetone 103 % of control | dose: 100.0 mg/kg/injection, schedule: Q04DX003 (ip), vehicle: acetone 102 % of control

CS(=O)(=O)OCC(O)C(O)COS(C)(=O)=O (centres undefined)
inactive: dose: 50.0 mg/kg/injection, schedule: Q01DX010 (ip), vehicle: saline 93 % of control and 91 % of control | dose: 100.0 mg/kg/injection, schedule: Q01DX010 (ip), vehicle: saline 96 % of control | dose: 125.0 mg/kg/injection, schedule: Q01DX Z (ip), vehicle: carboxymethylcellulose (CMC) 103 % of control | dose: 200.0 mg/kg/injection, schedule: Q01DX010 (ip), vehicle: saline 102 % of control and 108 % of control | dose: 250.0 mg/kg/injection, schedule: Q01DX Z (ip), vehicle: carboxymethylcellulose (CMC) 112 % of control | dose: 400.0 mg/kg/injection, schedule: Q01DX010 (ip), vehicle: saline 117 % of control | dose: 440.0 mg/kg/injection, schedule: Q01DX001 (ip), vehicle: carboxymethylcellulose (CMC) 101 % of control and 107 % of control | dose: 500.0 mg/kg/injection, schedule: Q01DX Z (ip), vehicle: carboxymethylcellulose (CMC) 123 % of control | dose: 670.0 mg/kg/injection, schedule: Q01DX001 (ip), vehicle: carboxymethylcellulose (CMC) 101 % of control and 107 % of control | dose: 1000.0 mg/kg/injection, schedule: Q01DX001 (ip), vehicle: carboxymethylcellulose (CMC) 103 % of control and 110 % of control

CC(=O)Nc1cccc2c1Cc1cc([N+](=O)[O-])ccc1-2
inactive: [3] 93 % of control | [4] 92 % of control | [5] 93 % of control | dose: 200.0 mg/kg/injection, schedule: Q01DX001 (ip), vehicle: carboxymethylcellulose (CMC) 92 % of control | [6] 94 % of control | [7] 87 % of control

CC(C)=C1C2CCC1C1C(=O)OC(=O)C21 (centres undefined)
inactive: [1] 95 % of control | [3] 102 % of control | dose: 100.0 mg/kg/injection, schedule: Q01DX001 (ip), vehicle: Klucel (hydroxypropylcellulose) (HPC) 98 % of control | [2] 88 % of control | [5] 102 % of control | dose: 200.0 mg/kg/injection, schedule: Q01DX001 (ip), vehicle: Klucel (hydroxypropylcellulose) (HPC) 105 % of control | [6] 100 % of control

CC(C)CNCc1ccc([N+](=O)[O-])cc1
inactive: dose: 75.0 mg/kg/injection, schedule: Q01DX001 (ip), vehicle: carboxymethylcellulose (CMC) 97 % of control | dose: 150.0 mg/kg/injection, schedule: Q01DX001 (ip), vehicle: carboxymethylcellulose (CMC) 95 % of control

O=C(CCCN1CCC(n2c(=O)[nH]c3ccccc32)CC1)c1ccc(F)cc1
inactive: dose: 6.25 mg/kg/injection, schedule: Q01DX009 (ip), vehicle: Klucel (hydroxypropylcellulose) (HPC) 92 % of control | dose: 12.5 mg/kg/injection, schedule: Q01DX009 (ip), vehicle: Klucel (hydroxypropylcellulose) (HPC) 113 % of control | dose: 12.5 mg/kg/injection, schedule: Q01DX009 (ip), vehicle: saline 102 % of control | dose: 25.0 mg/kg/injection, schedule: Q01DX009 (ip), vehicle: Klucel (hydroxypropylcellulose) (HPC) 120 % of control | dose: 25.0 mg/kg/injection, schedule: Q01DX009 (ip), vehicle: saline 110 % of control | dose: 25.0 mg/kg/injection, schedule: Q04DX003 (ip), vehicle: Klucel (hydroxypropylcellulose) (HPC) 98 % of control and 90 % of control | [1] 96 % of control | dose: 50.0 mg/kg/injection, schedule: Q01DX009 (ip), vehicle: saline 93 % of control | [3] 96 % of control | dose: 100.0 mg/kg/injection, schedule: Q01DX009 (ip), vehicle: saline 93 % of control | [5] 91 % of control and 111 % of control | [6] 110 % of control | dose: 400.0 mg/kg/injection, schedule: Q04DX003 (ip), vehicle: Klucel (hydroxypropylcellulose) (HPC) 97 % of control

COc1ccccc1NC(=O)Nc1cccc(C(C)=O)c1
inactive: dose: 100.0 mg/kg/injection, schedule: Q01DX009 (ip), vehicle: saline with Tween-80 93 % of control | dose: 100.0 mg/kg/injection, schedule: Q04DX003 (ip), vehicle: saline with Tween-80 97 % of control | dose: 200.0 mg/kg/injection, schedule: Q01DX009 (ip), vehicle: saline with Tween-80 90 % of control | dose: 200.0 mg/kg/injection, schedule: Q04DX003 (ip), vehicle: saline with Tween-80 100 % of control | dose: 400.0 mg/kg/injection, schedule: Q01DX009 (ip), vehicle: saline with Tween-80 100 % of control | dose: 400.0 mg/kg/injection, schedule: Q04DX003 (ip), vehicle: saline with Tween-80 96 % of control

Cc1ccc(C(=O)c2ccccc2)c(C)c1
inactive: [4] 86 % of control | [7] 92 % of control

CCOC(=O)NC1=C(N2CC2(C)C)C(=O)C(NC(=O)OCC)=C(N2CC2(C)C)C1=O
inactive: dose: 0.93 mg/kg/injection, schedule: Q01DX009 (ip), vehicle: saline 94 % of control and 110 % of control | dose: 1.87 mg/kg/injection, schedule: Q01DX009 (ip), vehicle: saline 100 % of control and 91 % of control | dose: 3.75 mg/kg/injection, schedule: Q01DX009 (ip), vehicle: saline 96 % of control and 102 % of control | dose: 7.5 mg/kg/injection, schedule: Q01DX009 (ip), vehicle: saline 102 % of control and 107 % of control | dose: 15.0 mg/kg/injection, schedule: Q01DX009 (ip), vehicle: saline 96 % of control and 89 % of control | dose: 30.0 mg/kg/injection, schedule: Q01DX009 (ip), vehicle: saline 100 % of control and 102 % of control
